According to publication PMC11904948, “Peptide‐Drug Conjugate for Therapeutic Reprogramming of Tumor‐Associated Macrophages in Breast Cancer” (Advanced Science, 2025):

System: Balb/c BMDM
Assay: Flow cytometry of marker expression on Balb/c BMDM
Format: cell-based, mouse
Conditions: 10 µM 4 h, 48 h after treatment, n = 4
Method: Figure 6 MACTIDE‐V promotes a YAP‐ mediated anti‐ tumoral switch in bone marrow‐derived macrophages. Day 5 BMDM were incubated for 4 h with 10 µM conjugates, washed, and followed‐up in media. A) YAP Immunofluorescence (shown in red) was analyzed 3 h after treatment and B) phagocytosis of fluorescent E. coli particles at 48 h follow‐up. C) Flow cytometry on BMDM 48 h after treatment. Left panel, GeoMean of MHC II, CD206, CD80, and PD‐L1 in Balb/c BMDM. Median ± interquartile range. Repeated measures one‐way ANOVA with multiple comparisons, for n = 4 independent experiments. ^* p ≤ 0.05, ^** p ≤ 0.01. D) Heatmap of the mRNA expression of genes involved in the functional activation of BMDM, YAP signaling, and adhesion, measured by real‐time PCR 48 h after treatment in BALB/c BMDM. n = 3 independent experiments. […]
At the mRNA level, MACTIDE‐V induced a clear increase in Il‐12, Chil3 and Nos2 genes, (Figure 6D, left panel). […] To further investigate whether the effect of MACTIDE‐V was mediated by YAP targeting, we analyzed a set of 7 YAP‐regulated genes (Figure 6D, right panel). […]

Substance: Vert‐Ahx‐G(CTKSIPPIC)SPGAK‐OH (disulfide) [MACTIDE‐V]
- expression of CD80 (GeoMean): no significant changes
- expression of CD206 (GeoMean): no significant changes
- expression of MHC II (GeoMean) (versus CtrlPep‐V and untreated): upregulated
- expression of PD‐L1 (GeoMean) (versus CtrlPep‐V and untreated): upregulated
